PubChem BioAssay (NCI)
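Step 1: Grow cells in 96-well plates. Step 2: Expose to compound for 48 hours at 5 concentrations. Step 3: Interpolate endpoints linearly; if unreached, use highest concentration. GI50 is the concentration that inhibits growth by half. The concentration for full growth arrest is given as TGI.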

Legend:
Experiment in all cases: NCI-60 cell line screen, 48 h
786-0 renal = system: 786-0 renal
A498 renal = system: A498 renal
A549 NSCLC = system: A549 NSCLC
ACHN renal = system: ACHN renal
BT-549 breast = system: BT-549 breast
CAKI-1 renal = system: CAKI-1 renal
CCRF-CEM leukemia = system: CCRF-CEM leukemia
COLO 205 colon = system: COLO 205 colon
DU-145 prostate = system: DU-145 prostate
EKVX NSCLC = system: EKVX NSCLC
HCC-2998 colon = system: HCC-2998 colon
HCT-116 colon = system: HCT-116 colon
HCT-15 colon = system: HCT-15 colon
HL-60(TB) leukemia = system: HL-60(TB) leukemia
HOP-62 NSCLC = system: HOP-62 NSCLC
HOP-92 NSCLC = system: HOP-92 NSCLC
HT29 colon = system: HT29 colon
IGROV1 ovarian = system: IGROV1 ovarian
K-562 leukemia = system: K-562 leukemia
KM12 colon = system: KM12 colon
M14 melanoma = system: M14 melanoma
MALME-3M melanoma = system: MALME-3M melanoma
MCF7 breast = system: MCF7 breast
MDA-MB-435 = system: MDA-MB-435
MDA-MB-468 breast = system: MDA-MB-468 breast
MOLT-4 leukemia = system: MOLT-4 leukemia
NCI-H226 lung = system: NCI-H226 lung
NCI-H23 lung = system: NCI-H23 lung
NCI-H460 lung = system: NCI-H460 lung
NCI-H522 lung = system: NCI-H522 lung
NCI/ADR-RES ovarian = system: NCI/ADR-RES ovarian
OVCAR-3 ovarian = system: OVCAR-3 ovarian
OVCAR-4 ovarian = system: OVCAR-4 ovarian
OVCAR-5 ovarian = system: OVCAR-5 ovarian
OVCAR-8 ovarian = system: OVCAR-8 ovarian
PC-3 prostate = system: PC-3 prostate
RPMI-8226 leukemia = system: RPMI-8226 leukemia
RXF 393 renal = system: RXF 393 renal
SF-268 CNS = system: SF-268 CNS
SF-295 CNS = system: SF-295 CNS
SF-539 CNS = system: SF-539 CNS
SK-MEL-2 melanoma = system: SK-MEL-2 melanoma
SK-MEL-28 melanoma = system: SK-MEL-28 melanoma
SK-MEL-5 melanoma = system: SK-MEL-5 melanoma
SK-OV-3 ovarian = system: SK-OV-3 ovarian
SN12C renal = system: SN12C renal
SNB-19 CNS = system: SNB-19 CNS
SNB-75 CNS = system: SNB-75 CNS
SR leukemia = system: SR leukemia
T-47D breast = system: T-47D breast
TK-10 renal = system: TK-10 renal
U251 CNS = system: U251 CNS
UACC-257 melanoma = system: UACC-257 melanoma
UACC-62 melanoma = system: UACC-62 melanoma
UO-31 renal = system: UO-31 renal

**Q.** With `C=C1CC[C@@H]2[C@]3(C)COC(c4cn[nH]c4-c4ccc(F)cc4)O[C@@H]3CC[C@@]2(C)[C@@H]1C/C=C1/C(=O)OCC1O` (stereo not given in full) as the molecule, how does the GI50 (786-0 renal) read?
**A.** 16.6 µM

**Q.** What about the TGI (786-0 renal) of the same molecule?
**A.** 30.2 µM

**Q.** And the GI50 (A498 renal)?
**A.** 17 µM

**Q.** And the TGI (A498 renal)?
**A.** 30.7 µM

**Q.** And the GI50 (A549 NSCLC)?
**A.** 21.4 µM

**Q.** What about the TGI (A549 NSCLC) of the same molecule?
**A.** 62.2 µM

**Q.** And the GI50 (ACHN renal)?
**A.** 15.1 µM

**Q.** And the TGI (ACHN renal)?
**A.** 28.4 µM

**Q.** And the GI50 (BT-549 breast)?
**A.** 13.4 µM

**Q.** And the TGI (BT-549 breast)?
**A.** 27.5 µM

**Q.** What about the GI50 (CAKI-1 renal) of the same molecule?
**A.** 21.5 µM

**Q.** And the TGI (CAKI-1 renal)?
**A.** 50 µM

**Q.** And the GI50 (CCRF-CEM leukemia)?
**A.** 4.6 µM

**Q.** What about the TGI (CCRF-CEM leukemia) of the same molecule?
**A.** 38.5 µM

**Q.** And the GI50 (COLO 205 colon)?
**A.** 18.2 µM

**Q.** And the TGI (COLO 205 colon)?
**A.** 35 µM

**Q.** What about the GI50 (DU-145 prostate) of the same molecule?
**A.** 19.6 µM

**Q.** And the TGI (DU-145 prostate)?
**A.** 43.5 µM

**Q.** What about the GI50 (EKVX NSCLC) of the same molecule?
**A.** 13.5 µM

**Q.** And the TGI (EKVX NSCLC)?
**A.** 26.3 µM

**Q.** And the GI50 (HCC-2998 colon)?
**A.** 16.3 µM

**Q.** What about the TGI (HCC-2998 colon) of the same molecule?
**A.** 29.8 µM

**Q.** And the GI50 (HCT-116 colon)?
**A.** 14.9 µM

**Q.** And the TGI (HCT-116 colon)?
**A.** 28.1 µM

**Q.** And the GI50 (HCT-15 colon)?
**A.** 14.9 µM

**Q.** What about the TGI (HCT-15 colon) of the same molecule?
**A.** 30.5 µM

**Q.** And the GI50 (HL-60(TB) leukemia)?
**A.** 12.8 µM

**Q.** What about the TGI (HL-60(TB) leukemia) of the same molecule?
**A.** 40.2 µM

**Q.** And the GI50 (HOP-62 NSCLC)?
**A.** 18.1 µM

**Q.** What about the TGI (HOP-62 NSCLC) of the same molecule?
**A.** 34.4 µM

**Q.** What about the GI50 (HOP-92 NSCLC) of the same molecule?
**A.** 14.7 µM

**Q.** What about the TGI (HOP-92 NSCLC) of the same molecule?
**A.** 34.9 µM

**Q.** What about the GI50 (HT29 colon) of the same molecule?
**A.** 16.4 µM

**Q.** And the TGI (HT29 colon)?
**A.** 30.2 µM

**Q.** What about the GI50 (IGROV1 ovarian) of the same molecule?
**A.** 16.4 µM

**Q.** What about the TGI (IGROV1 ovarian) of the same molecule?
**A.** 30.6 µM

**Q.** What about the GI50 (K-562 leukemia) of the same molecule?
**A.** 13.1 µM

**Q.** And the TGI (K-562 leukemia)?
**A.** 49.6 µM

**Q.** What about the GI50 (KM12 colon) of the same molecule?
**A.** 22.5 µM

**Q.** What about the TGI (KM12 colon) of the same molecule?
**A.** 57 µM

**Q.** And the GI50 (M14 melanoma)?
**A.** 16.5 µM

**Q.** What about the TGI (M14 melanoma) of the same molecule?
**A.** 34.1 µM

**Q.** What about the GI50 (MALME-3M melanoma) of the same molecule?
**A.** 16 µM

**Q.** And the TGI (MALME-3M melanoma)?
**A.** 30 µM

**Q.** What about the GI50 (MCF7 breast) of the same molecule?
**A.** 7.52 µM

**Q.** And the TGI (MCF7 breast)?
**A.** 22 µM

**Q.** And the GI50 (MDA-MB-435)?
**A.** 20.8 µM

**Q.** And the TGI (MDA-MB-435)?
**A.** 52.9 µM

**Q.** And the GI50 (MDA-MB-468 breast)?
**A.** 11.9 µM

**Q.** What about the TGI (MDA-MB-468 breast) of the same molecule?
**A.** 24.6 µM

**Q.** What about the GI50 (MOLT-4 leukemia) of the same molecule?
**A.** 20.2 µM

**Q.** And the TGI (MOLT-4 leukemia)?
**A.** 77.4 µM

**Q.** What about the GI50 (NCI-H226 lung) of the same molecule?
**A.** 13.1 µM

**Q.** And the TGI (NCI-H226 lung)?
**A.** 27.6 µM

**Q.** And the GI50 (NCI-H23 lung)?
**A.** 15.6 µM

**Q.** And the TGI (NCI-H23 lung)?
**A.** 29.9 µM

**Q.** And the GI50 (NCI-H460 lung)?
**A.** 19.7 µM

**Q.** And the TGI (NCI-H460 lung)?
**A.** 42.7 µM

**Q.** What about the GI50 (NCI-H522 lung) of the same molecule?
**A.** 16.7 µM

**Q.** And the TGI (NCI-H522 lung)?
**A.** 30.9 µM

**Q.** And the GI50 (NCI/ADR-RES ovarian)?
**A.** 17.7 µM

**Q.** And the TGI (NCI/ADR-RES ovarian)?
**A.** 85.9 µM

**Q.** What about the GI50 (OVCAR-3 ovarian) of the same molecule?
**A.** 15.9 µM

**Q.** What about the TGI (OVCAR-3 ovarian) of the same molecule?
**A.** 32.9 µM

**Q.** And the GI50 (OVCAR-4 ovarian)?
**A.** 27.5 µM

**Q.** What about the TGI (OVCAR-4 ovarian) of the same molecule?
**A.** > 100 µM

**Q.** What about the GI50 (OVCAR-5 ovarian) of the same molecule?
**A.** 18.2 µM

**Q.** And the TGI (OVCAR-5 ovarian)?
**A.** 32.2 µM

**Q.** And the GI50 (OVCAR-8 ovarian)?
**A.** 23.3 µM

**Q.** And the TGI (OVCAR-8 ovarian)?
**A.** > 100 µM

**Q.** What about the GI50 (PC-3 prostate) of the same molecule?
**A.** 15.6 µM

**Q.** And the TGI (PC-3 prostate)?
**A.** 43.9 µM

**Q.** And the GI50 (RPMI-8226 leukemia)?
**A.** 11.5 µM

**Q.** And the TGI (RPMI-8226 leukemia)?
**A.** 60.8 µM

**Q.** What about the GI50 (RXF 393 renal) of the same molecule?
**A.** 13.7 µM

**Q.** And the TGI (RXF 393 renal)?
**A.** 27 µM

**Q.** And the GI50 (SF-268 CNS)?
**A.** 20.7 µM

**Q.** What about the TGI (SF-268 CNS) of the same molecule?
**A.** 74.9 µM

**Q.** What about the GI50 (SF-295 CNS) of the same molecule?
**A.** 16.6 µM

**Q.** What about the TGI (SF-295 CNS) of the same molecule?
**A.** 30.7 µM

**Q.** And the GI50 (SF-539 CNS)?
**A.** 14.5 µM

**Q.** And the TGI (SF-539 CNS)?
**A.** 27.6 µM

**Q.** And the GI50 (SK-MEL-2 melanoma)?
**A.** 16.5 µM

**Q.** What about the TGI (SK-MEL-2 melanoma) of the same molecule?
**A.** 31.6 µM

**Q.** What about the GI50 (SK-MEL-28 melanoma) of the same molecule?
**A.** 16.8 µM

**Q.** And the TGI (SK-MEL-28 melanoma)?
**A.** 30.4 µM

**Q.** What about the GI50 (SK-MEL-5 melanoma) of the same molecule?
**A.** 15.5 µM

**Q.** What about the TGI (SK-MEL-5 melanoma) of the same molecule?
**A.** 28.9 µM

**Q.** What about the GI50 (SK-OV-3 ovarian) of the same molecule?
**A.** 21.8 µM

**Q.** And the TGI (SK-OV-3 ovarian)?
**A.** 43.5 µM

**Q.** What about the GI50 (SN12C renal) of the same molecule?
**A.** 15.4 µM

**Q.** And the TGI (SN12C renal)?
**A.** 29.6 µM

**Q.** What about the GI50 (SNB-19 CNS) of the same molecule?
**A.** 16 µM

**Q.** What about the TGI (SNB-19 CNS) of the same molecule?
**A.** 29.5 µM

**Q.** And the GI50 (SNB-75 CNS)?
**A.** 14.1 µM

**Q.** And the TGI (SNB-75 CNS)?
**A.** 43.8 µM

**Q.** What about the GI50 (SR leukemia) of the same molecule?
**A.** 16.7 µM

**Q.** And the TGI (SR leukemia)?
**A.** 56.4 µM

**Q.** And the GI50 (T-47D breast)?
**A.** 15.7 µM

**Q.** What about the TGI (T-47D breast) of the same molecule?
**A.** 47.7 µM

**Q.** And the GI50 (TK-10 renal)?
**A.** 19 µM

**Q.** What about the TGI (TK-10 renal) of the same molecule?
**A.** 33 µM

**Q.** What about the GI50 (U251 CNS) of the same molecule?
**A.** 12.9 µM

**Q.** And the TGI (U251 CNS)?
**A.** 30.5 µM

**Q.** What about the GI50 (UACC-257 melanoma) of the same molecule?
**A.** 22.3 µM

**Q.** And the TGI (UACC-257 melanoma)?
**A.** 69.2 µM

**Q.** What about the GI50 (UACC-62 melanoma) of the same molecule?
**A.** 14.3 µM

**Q.** What about the TGI (UACC-62 melanoma) of the same molecule?
**A.** 27.3 µM

**Q.** And the GI50 (UO-31 renal)?
**A.** 13.7 µM

**Q.** And the TGI (UO-31 renal)?
**A.** 26.6 µM
